Values after ≈ are worked out from the molar mass of the structure shown.
How the values were obtained:
Type in all cases: functional
Streptococcus pneumoniae = assay: Antibacterial activity against penicillin-resistant Streptococcus pneumoniae after 16 hrs by agar dilution method
Staphylococcus aureus [1] = assay: Antibacterial activity against methicillin-resistant Staphylococcus aureus after 16 hrs by agar dilution method
Staphylococcus aureus [2] = assay: Antibacterial activity against Staphylococcus aureus […] after 16 hrs by agar dilution method
Staphylococcus aureus [3] = assay: Antibacterial activity against methicillin-sensitive Staphylococcus aureus after 16 hrs by agar dilution method
[4] = test system: Staphylococcus epidermidis; assay: Antibacterial activity against methicillin-sensitive Staphylococcus epidermidis after 16 hrs by agar dilution method
[5] = test system: Staphylococcus epidermidis; assay: Antibacterial activity against methicillin-resistant Staphylococcus epidermidis after 16 hrs by agar dilution method

Compound	MIC (Streptococcus pneumoniae)	MIC (Staphylococcus aureus [1])	MIC (Staphylococcus aureus [2])	MIC (Staphylococcus aureus [3])	MIC [4]	MIC [5]
C=C[C@]1(C)C[C@@H](OC(=O)CSc2cncc(/C=N/OCC)c2)[C@]2(C)[C@H](C)CC[C@]3(CCC(=O)[C@H]32)[C@@H](C)[C@@H]1O	1 µg/mL (≈ 1.84 µM)	1 µg/mL (≈ 1.84 µM)	1 µg/mL (≈ 1.84 µM)	1 µg/mL (≈ 1.84 µM)	1 µg/mL (≈ 1.84 µM)	1 µg/mL (≈ 1.84 µM)
C=C[C@]1(C)C[C@@H](OC(=O)CSc2ccc([N+](=O)[O-])cn2)[C@]2(C)[C@H](C)CC[C@]3(CCC(=O)[C@H]32)[C@@H](C)[C@@H]1O	0.5 µg/mL (≈ 0.968 µM)	0.5 µg/mL (≈ 0.968 µM)	1 µg/mL (≈ 1.94 µM)	0.25 µg/mL (≈ 0.484 µM)	0.25 µg/mL (≈ 0.484 µM)	0.25 µg/mL (≈ 0.484 µM)
C=C[C@]1(C)C[C@@H](OC(=O)CSc2ncccc2[N+](=O)[O-])[C@]2(C)[C@H](C)CC[C@]3(CCC(=O)[C@H]32)[C@@H](C)[C@@H]1O	0.125 µg/mL (≈ 0.242 µM)	0.063 µg/mL (≈ 0.122 µM)	0.125 µg/mL (≈ 0.242 µM)	0.125 µg/mL (≈ 0.242 µM)	0.125 µg/mL (≈ 0.242 µM)	0.063 µg/mL (≈ 0.122 µM)
C=C[C@]1(C)C[C@@H](OC(=O)CSc2cc(CO)ccn2)[C@]2(C)[C@H](C)CC[C@]3(CCC(=O)[C@H]32)[C@@H](C)[C@@H]1O	0.125 µg/mL (≈ 0.249 µM)	0.125 µg/mL (≈ 0.249 µM)	0.125 µg/mL (≈ 0.249 µM)	0.125 µg/mL (≈ 0.249 µM)	0.125 µg/mL (≈ 0.249 µM)	0.125 µg/mL (≈ 0.249 µM)
C=C[C@]1(C)C[C@@H](OC(=O)CSc2ncccc2CO)[C@]2(C)[C@H](C)CC[C@]3(CCC(=O)[C@H]32)[C@@H](C)[C@@H]1O	0.125 µg/mL (≈ 0.249 µM)	0.125 µg/mL (≈ 0.249 µM)	0.125 µg/mL (≈ 0.249 µM)	0.125 µg/mL (≈ 0.249 µM)	0.063 µg/mL (≈ 0.126 µM)	0.125 µg/mL (≈ 0.249 µM)
C=C[C@]1(C)C[C@@H](OC(=O)CSc2ncccc2C#N)[C@]2(C)[C@H](C)CC[C@]3(CCC(=O)[C@H]32)[C@@H](C)[C@@H]1O	0.5 µg/mL (≈ 1.01 µM)	0.5 µg/mL (≈ 1.01 µM)	1 µg/mL (≈ 2.01 µM)	0.5 µg/mL (≈ 1.01 µM)	0.5 µg/mL (≈ 1.01 µM)	0.5 µg/mL (≈ 1.01 µM)
C=C[C@]1(C)C[C@@H](OC(=O)CSc2cc(C#N)ccn2)[C@]2(C)[C@H](C)CC[C@]3(CCC(=O)[C@H]32)[C@@H](C)[C@@H]1O	0.063 µg/mL (≈ 0.127 µM)	0.063 µg/mL (≈ 0.127 µM)	0.125 µg/mL (≈ 0.252 µM)	0.063 µg/mL (≈ 0.127 µM)	0.063 µg/mL (≈ 0.127 µM)	0.063 µg/mL (≈ 0.127 µM)
C=C[C@]1(C)C[C@@H](OC(=O)CSc2ccc(N)cn2)[C@]2(C)[C@H](C)CC[C@]3(CCC(=O)[C@H]32)[C@@H](C)[C@@H]1O	0.063 µg/mL (≈ 0.129 µM)	0.063 µg/mL (≈ 0.129 µM)	0.125 µg/mL (≈ 0.257 µM)	0.063 µg/mL (≈ 0.129 µM)	0.063 µg/mL (≈ 0.129 µM)	0.063 µg/mL (≈ 0.129 µM)
C=C[C@]1(C)C[C@@H](OC(=O)CSc2ncccc2N)[C@]2(C)[C@H](C)CC[C@]3(CCC(=O)[C@H]32)[C@@H](C)[C@@H]1O	0.25 µg/mL (≈ 0.514 µM)	0.25 µg/mL (≈ 0.514 µM)	0.5 µg/mL (≈ 1.03 µM)	0.25 µg/mL (≈ 0.514 µM)	0.125 µg/mL (≈ 0.257 µM)	0.125 µg/mL (≈ 0.257 µM)
C=C[C@]1(C)C[C@@H](OC(=O)CSc2cc(/C=N/O)ccn2)[C@]2(C)[C@H](C)CC[C@]3(CCC(=O)[C@H]32)[C@@H](C)[C@@H]1O	0.25 µg/mL (≈ 0.486 µM)	0.125 µg/mL (≈ 0.243 µM)	0.125 µg/mL (≈ 0.243 µM)	0.063 µg/mL (≈ 0.122 µM)	0.063 µg/mL (≈ 0.122 µM)	0.125 µg/mL (≈ 0.243 µM)
C=C[C@]1(C)C[C@@H](OC(=O)CSc2cc(/C=N/N)ccn2)[C@]2(C)[C@H](C)CC[C@]3(CCC(=O)[C@H]32)[C@@H](C)[C@@H]1O	0.5 µg/mL (≈ 0.973 µM)	0.5 µg/mL (≈ 0.973 µM)	0.5 µg/mL (≈ 0.973 µM)	0.5 µg/mL (≈ 0.973 µM)	0.5 µg/mL (≈ 0.973 µM)	0.5 µg/mL (≈ 0.973 µM)
C=C[C@]1(C)C[C@@H](OC(=O)CSc2ccncc2N)[C@]2(C)[C@H](C)CC[C@]3(CCC(=O)[C@H]32)[C@@H](C)[C@@H]1O	0.125 µg/mL (≈ 0.257 µM)	0.063 µg/mL (≈ 0.129 µM)	0.125 µg/mL (≈ 0.257 µM)	0.063 µg/mL (≈ 0.129 µM)	0.063 µg/mL (≈ 0.129 µM)	0.063 µg/mL (≈ 0.129 µM)
C=C[C@]1(C)C[C@@H](OC(=O)CSc2ccnc(N)c2)[C@]2(C)[C@H](C)CC[C@]3(CCC(=O)[C@H]32)[C@@H](C)[C@@H]1O	0.063 µg/mL (≈ 0.129 µM)	0.063 µg/mL (≈ 0.129 µM)	0.063 µg/mL (≈ 0.129 µM)	0.063 µg/mL (≈ 0.129 µM)	0.063 µg/mL (≈ 0.129 µM)	0.063 µg/mL (≈ 0.129 µM)
C=C[C@]1(C)C[C@@H](OC(=O)CSc2ccncc2CO)[C@]2(C)[C@H](C)CC[C@]3(CCC(=O)[C@H]32)[C@@H](C)[C@@H]1O	0.125 µg/mL (≈ 0.249 µM)	0.063 µg/mL (≈ 0.126 µM)	0.063 µg/mL (≈ 0.126 µM)	0.063 µg/mL (≈ 0.126 µM)	0.063 µg/mL (≈ 0.126 µM)	0.063 µg/mL (≈ 0.126 µM)
C=C[C@]1(C)C[C@@H](OC(=O)CSc2ccnc(CO)c2)[C@]2(C)[C@H](C)CC[C@]3(CCC(=O)[C@H]32)[C@@H](C)[C@@H]1O	0.063 µg/mL (≈ 0.126 µM)	0.031 µg/mL (≈ 0.0618 µM)	0.063 µg/mL (≈ 0.126 µM)	0.063 µg/mL (≈ 0.126 µM)	0.031 µg/mL (≈ 0.0618 µM)	0.031 µg/mL (≈ 0.0618 µM)
C=C[C@]1(C)C[C@@H](OC(=O)CSc2cncc(NC(=O)[C@H](C)N)c2)[C@]2(C)[C@H](C)CC[C@]3(CCC(=O)[C@H]32)[C@@H](C)[C@@H]1O	0.125 µg/mL (≈ 0.224 µM)	0.125 µg/mL (≈ 0.224 µM)	0.125 µg/mL (≈ 0.224 µM)	0.125 µg/mL (≈ 0.224 µM)	0.125 µg/mL (≈ 0.224 µM)	0.125 µg/mL (≈ 0.224 µM)
C=C[C@]1(C)C[C@@H](OC(=O)CSc2cncc(NC(=O)[C@@H](N)C(C)C)c2)[C@]2(C)[C@H](C)CC[C@]3(CCC(=O)[C@H]32)[C@@H](C)[C@@H]1O	0.125 µg/mL (≈ 0.213 µM)	0.125 µg/mL (≈ 0.213 µM)	0.25 µg/mL (≈ 0.427 µM)	0.125 µg/mL (≈ 0.213 µM)	0.125 µg/mL (≈ 0.213 µM)	0.125 µg/mL (≈ 0.213 µM)
